This is an account of results in the NIST ThermoML archive (doi:10.1021/je3009073).

Numbers after ± are expanded uncertainties.

Series [1] is described as follows: xn = mol fraction of the nth substance listed. The note with it: 101 kPa, Liquid, x1 = 1; for viscosity: Capillary tube (Ostwald / Ubbelohde) method; for mass density: Pycnometric method.
For series [2] the following is noted: 101.33 kPa, Liquid; for viscosity: Capillary tube (Ostwald / Ubbelohde) method; for mass density: Pycnometric method.

As for `O` [water] + CC(O)C(=O)[O-].[NH3+]CCO, the viscosity – broadly, the resistance of a fluid to flow – was determined as 0.8 ± 0.03 mPa·s in series [1] (303.15 K); 0.72 ± 0.03 mPa·s in series [1] (308.15 K); 0.65 ± 0.03 mPa·s in series [1] (313.15 K); 0.6 ± 0.02 mPa·s in series [1] (318.15 K); 0.55 ± 0.02 mPa·s in series [1] (323.15 K); 0.5 ± 0.02 mPa·s in series [1] (328.15 K). The mass density (commonly the mass of a sample divided by its volume) was 988 ± 2 kg/m3 in series [1] (323.15 K) and 985.7 ± 2 kg/m3 in series [1] (328.15 K).
As to `O` [water] + CC(O)C(=O)[O-].CN(C)C(N)=[N+](C)C, the viscosity in series [1] (303.15 K) turned out to be 0.8 ± 0.03 mPa·s; in series [1] (308.15 K), 0.72 ± 0.03 mPa·s; in series [1] (313.15 K), 0.65 ± 0.03 mPa·s; in series [1] (318.15 K) it was 0.6 ± 0.1 mPa·s; in series [1] (323.15 K), 0.55 ± 0.02 mPa·s; in series [1] (328.15 K), 0.5 ± 0.02 mPa·s. In addition, the mass density stood at 988 ± 2 kg/m3 in series [1] (323.15 K) and 985.7 ± 2 kg/m3 in series [1] (328.15 K).
`NCCO` [2-aminoethan-1-ol]: the viscosity in series [2] (303.15 K) came out at 14.55 ± 0.61 mPa·s; in series [2] (308.15 K), 11.86 ± 0.5 mPa·s; in series [2] (313.15 K) it was 9.65 ± 0.41 mPa·s; in series [2] (318.15 K), 7.91 ± 0.33 mPa·s; in series [2] (323.15 K), 6.72 ± 0.28 mPa·s; in series [2] (328.15 K) it was 5.74 ± 0.24 mPa·s. Also, the mass density stood at 1007.9 ± 2 kg/m3 in series [2] (303.15 K); 1004.2 ± 2 kg/m3 in series [2] (308.15 K); 1000.5 ± 2.1 kg/m3 in series [2] (313.15 K); 996.2 ± 2.1 kg/m3 in series [2] (318.15 K); 992.7 ± 2.1 kg/m3 in series [2] (323.15 K); 988.7 ± 2.1 kg/m3 in series [2] (328.15 K).
